This is an account of results in US20100286131A1, “VIRAL POLYMERASE INHIBITORS” (BOEHRINGER INGELHEIM INTERNATIONAL GMBH, priority 2007, published 2010).

For data set [1], the system named is cells expressing a stable subgenomic HCV replicon. Description: Cell-based luciferase reporter HCV RNA replication assay. To be noted: Hepatitis C virus, inhibition of HCV RNA replication, assay of WO 2005/028501. The protocol:
Cell-Based Luciferase Reporter HCV RNA Replication Assay
Compounds of the invention are tested for activity as inhibitors of hepatitis C virus RNA replication in cells expressing a stable subgenomic HCV replicon, using the assay described in WO 2005/028501, herein incorporated by reference. Table 4 lists representative compounds of the invention with their EC50 values and a comparative non-fluorinated analog wherein the presence of the fluorine atom provided an unexpected improvement in cell-based potency.

Data set [2] is described as follows: In vitro metabolism in male human liver microsomes (HLM). The format is in vitro ADME. To be noted: 1 mg microsomal protein, 2.5 mM NADPH, 2 μM compound, pH 7.4, 37° C. The protocol:
Male human liver microsomes are purchased from Gentest. The pool consisted of microsomes from several donors. The in vitro metabolism in liver microsomes is carried out in a reaction media containing 1 mg of microsomal protein, 2.5 mM NADPH and 2 μM compound in a total volume of 1 ml of 0.066 M Tris buffer, pH 7.4 for 20 minutes at 37° C. Reactions are initiated by the addition of NADPH and terminated at the appropriate times by quenching with an equal volume of a 1:1 mixture of acetonitrile:methanol.
A general note: Microsomes from liver hold many membrane-bound enzymes, among them those of drug oxidation.

In the case of `Cc1ccc(OCc2cnc(Oc3ccc(N(C(=O)[C@H]4CC[C@H](C)CC4)C(C)C)c(C(=O)O)c3)c(C(F)(F)F)c2)c(C)n1`, the midpoint of the response in data set [1], the EC50, lay at 86.5 nM.

For `CC(C)N(c1ccc(Cc2ccc(Cn3cccc4ccnc3-4)cc2C(F)(F)F)cc1C(=O)O)C(=O)[C@H]1CC[C@H](C)CC1`, a half-maximal response in data set [1] (EC50) required 208 nM.

On to `CC(C)N(c1ccc(Oc2ncc(Cn3cnnc3)cc2C(F)(F)F)cc1C(=O)O)C(=O)[C@H]1CC[C@H](C)CC1`, for which the EC50 (usually the midpoint of the concentration-response curve) in data set [1] is 160 nM.

`CC(C)N(c1ccc(Oc2ncc(CN3CCC(F)(F)C3)cc2C(F)(F)F)cc1C(=O)O)C(=O)[C@H]1CC[C@H](C)CC1`: the EC50 in data set [1] was 89 nM.

`CC(C)N(c1ccc(Oc2ccc(Cn3ccc4cccnc43)cc2C(F)(F)F)cc1C(=O)O)C(=O)[C@H]1CC[C@H](C)CC1`: the midpoint of the response in data set [1], the EC50, lay at 265 nM.

With `CC(C)N(c1ccc(Oc2ncccc2C(F)(F)F)cc1C(=O)O)C(=O)[C@H]1CC[C@H](C)CC1`, the HLM in data set [2] amounted to 69 min.

`Cc1nc(Cc2ccc(Oc3ccc(N(C(=O)[C@H]4CC[C@H](C)CC4)C(C)C)c(C(=O)O)c3)c(C(F)(F)F)c2)cs1` had an HLM in data set [2] of 29 min.

Consider `CC(C)N(c1cc(F)c(Oc2ncccc2C(F)(F)F)cc1C(=O)O)C(=O)[C@H]1CC[C@H](C)CC1` [Compound 1011], for which, in data set [2], the HLM is listed as 136 min.

For `CC(C)N(c1cc(F)c(Oc2ncc(Cn3cnnc3)cc2C(F)(F)F)cc1C(=O)O)C(=O)[C@H]1CC[C@H](C)CC1` [Compound 1042], the EC50 in data set [1] came to 47 nM.

As for `Cc1ccc(OCc2cnc(Oc3cc(C(=O)O)c(N(C(=O)[C@H]4CC[C@H](C)CC4)C(C)C)cc3F)c(C(F)(F)F)c2)c(C)n1` [Compound 1058], in data set [1], the EC50 was 39.5 nM.

In data set [2], `Cc1nc(Cc2cnc(Oc3cc(C(=O)O)c(N(C(=O)[C@H]4CC[C@H](C)CC4)C(C)C)cc3F)c(C(F)(F)F)c2)cs1` [Compound 1072] gave an HLM of 129 min.

Consider `CC(C)N(c1cc(F)c(Oc2ncc(CN3CCC(F)(F)C3)cc2C(F)(F)F)cc1C(=O)O)C(=O)[C@H]1CC[C@H](C)CC1` [Compound 1101], for which a half-maximal response in data set [1] (EC50) required 41.5 nM.

Take `CC(C)N(c1cc(F)c(Oc2ccc(Cn3cccc4ccnc3-4)cc2C(F)(F)F)cc1C(=O)O)C(=O)[C@H]1CC[C@H](C)CC1` [Compound 3016]: in data set [1], the EC50 was 72.5 nM.

In data set [1], `CC(C)N(c1cc(F)c(Oc2ccc(Cn3ccc4cccnc43)cc2C(F)(F)F)cc1C(=O)O)C(=O)[C@H]1CC[C@H](C)CC1` [Compound 3033] came in with an EC50 of 145 nM.
